Assay results reported in ChEMBL document CHEMBL1157833, “Serotonin derivatives as a new class of non-ATP-competitive receptor tyrosine kinase inhibitors” (Bioorg Med Chem, 2010).
Where a name gives a salt, the structure may show the parent alone.

Legend:
[1] = target: T1, Insulin-like growth factor 1 receptor (Homo sapiens, UniProt P08069); assay: Inhibition of IGF1R after 30 mins by chemiluminescence ELISA
[2] = target: T2, Vascular endothelial growth factor receptor 3 (Homo sapiens, UniProt P35916); assay: Inhibition of VEGFR3 after 30 mins by chemiluminescence ELISA
[3] = target: T3, Epidermal growth factor receptor (Homo sapiens, UniProt P00533); assay: Inhibition of EGFR after 30 mins by chemiluminescence ELISA
[4] = target: T4, Vascular endothelial growth factor receptor 2 (Homo sapiens, UniProt P35968); assay: Inhibition of VEGFR2 after 30 mins by chemiluminescence ELISA
[5] = tested on: MCF7; assay: Antiproliferative activity against human MCF7 cells assessed as BrdU incorporation into mitotic active cells after 24 hrs by luminometry; type: functional, cell-based; details: MCF7, 24 h
[6] = tested on: HT-29; assay: Cytotoxicity against human HT-29 cells after 24 hrs by WST1 assay; type: functional, cell-based; details: HT-29, 24 h
[7] = tested on: HUVEC; assay: Cytotoxicity against HUVEC after 24 hrs by WST1 assay; type: cell-based; details: Homo sapiens
[8] = target: T4, Vascular endothelial growth factor receptor 2; assay: Noncompetitive inhibition of VEGFR2 after 30 mins by chemiluminescence ELISA in presence of 25 uM ATP
[9] = target: T1, Insulin-like growth factor 1 receptor; assay: Noncompetitive inhibition of IGF1R after 30 mins by chemiluminescence ELISA in presence of 50 uM ATP
[10] = target: T3, Epidermal growth factor receptor
Description: Noncompetitive inhibition of EGFR after 30 mins by chemiluminescence ELISA in presence of 250 uM ATP

[11] = tested on: HT-29; assay: Antiproliferative activity against human HT-29 cells assessed as BrdU incorporation into mitotic active cells after 24 hrs by luminometry; type: functional, cell-based; details: HT-29, 24 h
[12] = target: T3, Epidermal growth factor receptor; remark: listed apart in the source
Description: Noncompetitive inhibition of EGFR after 30 mins by chemiluminescence ELISA in presence of 25 uM ATP

[13] = target: T2, Vascular endothelial growth factor receptor 3; assay: Noncompetitive inhibition of VEGFR3 after 30 mins by chemiluminescence ELISA in presence of 25 uM ATP
[14] = tested on: MCF7; assay: Cytotoxicity against human MCF7 cells after 24 hrs by WST1 assay; type: functional, cell-based; details: MCF7, 24 h
[15] = target: T1, Insulin-like growth factor 1 receptor; assay: Noncompetitive inhibition of IGF1R after 30 mins by chemiluminescence ELISA in presence of 250 uM ATP
[16] = tested on: HUVEC; assay: Antiproliferative activity against HUVEC assessed as BrdU incorporation into mitotic active cells after 24 hrs by luminometry; type: cell-based; details: Homo sapiens
[17] = target: T2, Vascular endothelial growth factor receptor 3; assay: Noncompetitive inhibition of VEGFR3 after 30 mins by chemiluminescence ELISA in presence of 50 uM ATP
[18] = target: T2, Vascular endothelial growth factor receptor 3; assay: Noncompetitive inhibition of VEGFR3 after 30 mins by chemiluminescence ELISA in presence of 250 uM ATP
[19] = target: T4, Vascular endothelial growth factor receptor 2; assay: Noncompetitive inhibition of VEGFR2 after 30 mins by chemiluminescence ELISA in presence of 50 uM ATP
[20] = target: T4, Vascular endothelial growth factor receptor 2; assay: Noncompetitive inhibition of VEGFR2 after 30 mins by chemiluminescence ELISA in presence of 250 uM ATP
[21] = target: T3, Epidermal growth factor receptor; remark: listed apart in the source
Description: Noncompetitive inhibition of EGFR after 30 mins by chemiluminescence ELISA in presence of 50 uM ATP

[22] = target: T1, Insulin-like growth factor 1 receptor; assay: Noncompetitive inhibition of IGF1R after 30 mins by chemiluminescence ELISA in presence of 25 uM ATP
[23] = Cytotoxicity against HEPM cells after 24 hrs by WST1 assay; type: cell-based; details: Homo sapiens
[24] = Antiproliferative activity against HEPM cells assessed as BrdU incorporation into mitotic active cells after 24 hrs by luminometry; type: cell-based; details: Homo sapiens

T1 sequence (P08069 31-736 limits assumed): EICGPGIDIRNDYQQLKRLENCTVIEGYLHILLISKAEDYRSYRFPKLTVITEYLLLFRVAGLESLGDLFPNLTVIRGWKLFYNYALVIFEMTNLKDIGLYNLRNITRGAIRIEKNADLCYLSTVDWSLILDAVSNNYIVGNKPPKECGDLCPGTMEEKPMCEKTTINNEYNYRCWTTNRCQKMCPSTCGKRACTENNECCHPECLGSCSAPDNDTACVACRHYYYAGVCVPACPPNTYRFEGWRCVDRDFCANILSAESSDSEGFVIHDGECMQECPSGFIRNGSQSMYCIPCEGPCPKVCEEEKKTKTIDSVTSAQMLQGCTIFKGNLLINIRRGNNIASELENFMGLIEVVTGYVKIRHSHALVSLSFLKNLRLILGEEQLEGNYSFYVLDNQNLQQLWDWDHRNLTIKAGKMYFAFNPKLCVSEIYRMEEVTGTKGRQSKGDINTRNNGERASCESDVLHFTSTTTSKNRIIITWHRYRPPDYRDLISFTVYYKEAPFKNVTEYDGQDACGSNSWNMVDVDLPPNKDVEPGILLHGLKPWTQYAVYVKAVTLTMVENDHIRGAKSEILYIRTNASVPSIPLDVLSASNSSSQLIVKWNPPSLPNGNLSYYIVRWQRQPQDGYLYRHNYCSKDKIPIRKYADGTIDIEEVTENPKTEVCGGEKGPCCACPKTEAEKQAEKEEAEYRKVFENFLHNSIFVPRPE
T1 sequence (P08069 741-1367 limits assumed): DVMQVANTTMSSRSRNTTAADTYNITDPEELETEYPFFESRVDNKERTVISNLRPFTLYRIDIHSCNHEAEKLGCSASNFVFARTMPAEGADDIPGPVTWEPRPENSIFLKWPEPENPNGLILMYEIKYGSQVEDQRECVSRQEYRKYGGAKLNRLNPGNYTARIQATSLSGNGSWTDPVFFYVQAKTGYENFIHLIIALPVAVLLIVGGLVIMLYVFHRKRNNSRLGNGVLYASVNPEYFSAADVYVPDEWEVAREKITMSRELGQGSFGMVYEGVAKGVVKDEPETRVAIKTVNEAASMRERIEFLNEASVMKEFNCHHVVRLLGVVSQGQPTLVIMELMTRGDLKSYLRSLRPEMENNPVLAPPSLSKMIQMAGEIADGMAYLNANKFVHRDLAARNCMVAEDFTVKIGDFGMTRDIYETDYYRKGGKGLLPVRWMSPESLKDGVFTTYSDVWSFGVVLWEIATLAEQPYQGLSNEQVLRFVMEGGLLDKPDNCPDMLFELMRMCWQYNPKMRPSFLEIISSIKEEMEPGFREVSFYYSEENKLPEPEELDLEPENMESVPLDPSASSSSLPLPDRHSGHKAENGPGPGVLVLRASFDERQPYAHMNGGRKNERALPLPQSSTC
T2 sequence (P35916 whole entry): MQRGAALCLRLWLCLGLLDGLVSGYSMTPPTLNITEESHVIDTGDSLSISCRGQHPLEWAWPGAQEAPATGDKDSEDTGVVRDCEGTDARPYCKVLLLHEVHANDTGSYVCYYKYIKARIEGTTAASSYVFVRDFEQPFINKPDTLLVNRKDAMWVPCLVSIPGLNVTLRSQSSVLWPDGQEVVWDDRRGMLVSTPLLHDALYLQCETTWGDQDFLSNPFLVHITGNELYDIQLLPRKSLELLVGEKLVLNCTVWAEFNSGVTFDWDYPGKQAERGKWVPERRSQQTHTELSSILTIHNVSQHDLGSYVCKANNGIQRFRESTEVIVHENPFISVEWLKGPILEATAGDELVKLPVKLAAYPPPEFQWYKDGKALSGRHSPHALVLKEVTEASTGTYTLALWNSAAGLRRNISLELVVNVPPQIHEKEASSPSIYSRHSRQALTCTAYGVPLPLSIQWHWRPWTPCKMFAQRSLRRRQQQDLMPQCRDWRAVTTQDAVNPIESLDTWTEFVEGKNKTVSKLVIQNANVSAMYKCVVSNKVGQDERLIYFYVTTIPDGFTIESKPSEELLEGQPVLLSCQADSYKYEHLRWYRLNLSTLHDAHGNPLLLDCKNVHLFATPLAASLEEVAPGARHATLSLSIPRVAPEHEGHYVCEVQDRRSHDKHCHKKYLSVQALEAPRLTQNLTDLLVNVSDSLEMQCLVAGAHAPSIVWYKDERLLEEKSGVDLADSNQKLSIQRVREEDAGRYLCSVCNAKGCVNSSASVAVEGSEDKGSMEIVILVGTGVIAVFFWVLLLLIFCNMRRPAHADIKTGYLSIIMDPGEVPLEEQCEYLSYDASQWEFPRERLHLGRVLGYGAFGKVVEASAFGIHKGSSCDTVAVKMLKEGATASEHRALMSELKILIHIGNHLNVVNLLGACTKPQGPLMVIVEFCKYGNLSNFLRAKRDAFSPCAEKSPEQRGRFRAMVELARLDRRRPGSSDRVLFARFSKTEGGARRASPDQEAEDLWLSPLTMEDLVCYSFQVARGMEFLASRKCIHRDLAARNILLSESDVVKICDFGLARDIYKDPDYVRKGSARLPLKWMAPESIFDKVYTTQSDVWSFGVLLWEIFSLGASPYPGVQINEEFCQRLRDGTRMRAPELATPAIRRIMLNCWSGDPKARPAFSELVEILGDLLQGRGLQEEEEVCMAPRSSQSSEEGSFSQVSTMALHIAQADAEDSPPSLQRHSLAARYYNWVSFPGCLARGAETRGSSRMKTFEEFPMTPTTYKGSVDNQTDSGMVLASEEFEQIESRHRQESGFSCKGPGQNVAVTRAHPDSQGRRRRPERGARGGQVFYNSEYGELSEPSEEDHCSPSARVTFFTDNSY
T4 sequence (P35968 whole entry): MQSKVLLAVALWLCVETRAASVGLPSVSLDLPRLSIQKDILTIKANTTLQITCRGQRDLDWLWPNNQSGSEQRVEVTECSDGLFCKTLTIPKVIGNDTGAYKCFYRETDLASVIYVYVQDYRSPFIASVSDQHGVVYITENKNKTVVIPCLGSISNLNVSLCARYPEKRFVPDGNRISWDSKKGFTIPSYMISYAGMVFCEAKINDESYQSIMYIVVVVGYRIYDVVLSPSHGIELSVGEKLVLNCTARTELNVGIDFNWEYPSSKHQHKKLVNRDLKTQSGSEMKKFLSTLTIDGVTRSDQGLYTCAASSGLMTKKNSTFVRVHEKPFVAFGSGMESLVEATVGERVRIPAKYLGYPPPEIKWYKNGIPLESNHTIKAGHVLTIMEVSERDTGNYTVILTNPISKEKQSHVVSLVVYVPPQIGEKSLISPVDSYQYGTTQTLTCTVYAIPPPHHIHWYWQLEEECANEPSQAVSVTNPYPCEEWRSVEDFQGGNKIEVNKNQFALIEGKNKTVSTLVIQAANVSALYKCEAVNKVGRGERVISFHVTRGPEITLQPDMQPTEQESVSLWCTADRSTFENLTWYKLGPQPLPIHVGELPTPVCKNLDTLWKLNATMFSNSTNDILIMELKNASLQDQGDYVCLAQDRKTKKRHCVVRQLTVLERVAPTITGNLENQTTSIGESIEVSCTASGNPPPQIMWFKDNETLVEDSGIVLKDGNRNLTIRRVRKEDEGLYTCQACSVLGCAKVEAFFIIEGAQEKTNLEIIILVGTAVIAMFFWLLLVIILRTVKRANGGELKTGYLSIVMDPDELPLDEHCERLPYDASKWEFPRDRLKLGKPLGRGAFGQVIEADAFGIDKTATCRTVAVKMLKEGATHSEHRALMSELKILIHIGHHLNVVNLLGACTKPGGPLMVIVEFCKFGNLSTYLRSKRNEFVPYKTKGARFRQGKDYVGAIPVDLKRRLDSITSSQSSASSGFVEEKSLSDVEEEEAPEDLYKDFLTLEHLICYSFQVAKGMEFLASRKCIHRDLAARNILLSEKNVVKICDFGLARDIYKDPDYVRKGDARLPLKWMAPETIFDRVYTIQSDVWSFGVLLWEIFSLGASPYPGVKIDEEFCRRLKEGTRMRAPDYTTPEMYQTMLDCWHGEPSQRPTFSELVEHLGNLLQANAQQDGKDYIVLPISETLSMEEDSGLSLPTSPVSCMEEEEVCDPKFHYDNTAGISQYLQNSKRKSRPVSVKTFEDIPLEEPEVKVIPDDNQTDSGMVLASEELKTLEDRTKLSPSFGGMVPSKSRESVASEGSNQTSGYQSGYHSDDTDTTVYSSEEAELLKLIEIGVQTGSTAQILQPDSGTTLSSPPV

## COc1ccc(CCOc2ccc3c(c2)c(CCN)cn3CCCCCc2ccc(SC)cc2)cc1
[1]
  IC50: 0.98 µM
[2]
  IC50: 1.31 µM
[3]
  IC50: 2.45 µM
[4]
  IC50: 1.45 µM

## COc1ccc(CCCCCn2cc(CCN)c3cc(OCCc4ccc(O)cc4)ccc32)cc1
[1]
  IC50: 3.21 µM
[2]
  IC50: 2.05 µM
[3]
  IC50: 4.4 µM
[4]
  IC50: 2.17 µM

## COCCc1ccc(O)cc1
[1]
  IC50: > 50 µM
[2]
  IC50: > 50 µM
[3]
  IC50: > 50 µM
[4]
  IC50: > 50 µM

## CSc1ccc(CCCCCn2cc(CCNC(=O)OC(C)(C)C)c3cc(OCCc4ccc(O)cc4)ccc32)cc1
[1]
  IC50: > 50 µM
[2]
  IC50: > 50 µM
[3]
  IC50: > 50 µM
[4]
  IC50: > 50 µM

## NC1CCc2c(c3cc(OCCc4ccc(O)cc4)ccc3n2CCCCCc2ccccn2)C1 (stereo unspecified)
[1]
  IC50: 2.8 µM
[4]
  IC50: 2.12 µM

## NC1CCc2c(c3cc(OCCc4ccc(O)cc4)ccc3n2CCCCCc2ccccc2)C1 (stereo unspecified)
[5]
  IC50: 3.85 µM
[6]
  IC50: 11 µM
[1]
  IC50: 0.93 µM
[2]
  IC50: 2.17 µM
[3]
  IC50: 1.01 µM
[7]
  IC50: 5.04 µM
[8]
  IC50: 1.06 µM
[9]
  IC50: 0.99 µM
[10]
  IC50: 1 µM
[11]
  IC50: 3.81 µM
[12]
  IC50: 1.01 µM
[13]
  IC50: 2.17 µM
[14]
  IC50: 4.79 µM
[15]
  IC50: 1.22 µM
[16]
  IC50: 1.38 µM
[17]
  IC50: 2.11 µM
[18]
  IC50: 2.19 µM
[19]
  IC50: 1.09 µM
[20]
  IC50: 1.04 µM
[21]
  IC50: 0.98 µM
[4]
  IC50: 1.06 µM
[22]
  IC50: 0.93 µM
[23]
  IC50: 7.76 µM
[24]
  IC50: 2.25 µM

## NCCc1cn(CCCCCc2ccccc2)c2ccc(OCCc3ccc(O)cc3)cc12
[1]
  IC50: 2.96 µM
[2]
  IC50: 2.68 µM
[3]
  IC50: 1.63 µM
[4]
  IC50: 2.83 µM

## COc1ccc(-c2ccc(Cn3cc(CCN)c4cc(OCCc5ccc(O)cc5)ccc43)cc2)cc1
[5]
  IC50: 4.79 µM
[6]
  IC50: 8.5 µM
[1]
  IC50: 1.79 µM
[2]
  IC50: 0.96 µM
[3]
  IC50: 1.25 µM
[7]
  IC50: 3.45 µM
[11]
  IC50: 4.86 µM
[14]
  IC50: 4.93 µM
[16]
  IC50: 0.75 µM
[4]
  IC50: 1.01 µM
[23]
  IC50: 5.7 µM
[24]
  IC50: 2.53 µM

## NC1CCc2[nH]c3ccc(OCCc4ccc(O)cc4)cc3c2C1 (stereo unspecified)
[1]
  IC50: 10.6 µM
[2]
  IC50: 34.6 µM
[3]
  IC50: 15.1 µM
[4]
  IC50: 27.1 µM

## NC1CCc2c(c3cc(OCCc4ccc(O)cc4)ccc3n2CCCCCc2ccc(C(F)(F)F)cc2)C1 (stereo unspecified)
[1]
  IC50: 5.15 µM
[2]
  IC50: 2.27 µM
[3]
  IC50: 2.75 µM
[4]
  IC50: 2.18 µM

## NCCc1cn(Cc2ccc(-c3cccc(C(F)(F)F)c3)cc2)c2ccc(OCCc3ccc(O)cc3)cc12
[5]
  IC50: 3.57 µM
[6]
  IC50: 7.95 µM
[1]
  IC50: 1.07 µM
[2]
  IC50: 3.01 µM
[3]
  IC50: 1.11 µM
[7]
  IC50: 6.32 µM
[8]
  IC50: 1.56 µM
[9]
  IC50: 1.06 µM
[10]
  IC50: 1.06 µM
[11]
  IC50: 4.38 µM
[12]
  IC50: 1.11 µM
[13]
  IC50: 3.01 µM
[14]
  IC50: 3.34 µM
[15]
  IC50: 1.02 µM
[16]
  IC50: 1.98 µM
[17]
  IC50: 2.98 µM
[18]
  IC50: 3.08 µM
[19]
  IC50: 1.48 µM
[20]
  IC50: 1.5 µM
[21]
  IC50: 1.12 µM
[4]
  IC50: 1.56 µM
[22]
  IC50: 1.07 µM
[23]
  IC50: 6.64 µM
[24]
  IC50: 2.74 µM

## NCCc1cn(Cc2ccc(-c3ccccc3)cc2)c2ccc(OCCc3ccc(O)cc3)cc12
[1]
  IC50: 2.36 µM
[2]
  IC50: 4.07 µM
[3]
  IC50: 1.3 µM
[4]
  IC50: 1.17 µM

## CSc1ccc(CCCCCn2cc(CCN)c3cc(OCCc4ccc(O)cc4)ccc32)cc1
[1]
  IC50: 2.25 µM
[2]
  IC50: 2.53 µM
[3]
  IC50: 1.92 µM
[4]
  IC50: 1.22 µM

## NCCc1c[nH]c2ccc(O)cc12 [SEROTONIN HYDROCHLORIDE]
[1]
  IC50: > 50 µM
[2]
  IC50: > 50 µM
[3]
  IC50: > 50 µM
[4]
  IC50: > 50 µM

## NCCc1c[nH]c2ccc(OCCc3ccc(O)cc3)cc12
[1]
  IC50: 1.78 µM
[2]
  IC50: 2.64 µM
[3]
  IC50: 2.07 µM
[4]
  IC50: 2.03 µM

## NC1CCc2c(c3cc(OCCc4ccc(O)cc4)ccc3n2CCCc2ccccc2)C1 (stereo unspecified)
[1]
  IC50: 1.33 µM
[2]
  IC50: 2.85 µM
[3]
  IC50: 2.5 µM
[4]
  IC50: 2.07 µM

## COc1ccc(CCCCCn2c3c(c4cc(OCCc5ccc(O)cc5)ccc42)CC(N)CC3)cc1 (stereo unspecified)
[1]
  IC50: 2.86 µM
[2]
  IC50: 1.81 µM
[3]
  IC50: 1.37 µM
[4]
  IC50: 0.94 µM

## CN(C)c1ccc(CCCCCn2c3c(c4cc(OCCc5ccc(O)cc5)ccc42)CC(N)CC3)cc1 (stereo unspecified)
[2]
  IC50: 1.66 µM
[3]
  IC50: 1.91 µM
